Assay results taken from ChEMBL document CHEMBL1201862, “PubChem BioAssay data set” (2004).
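Compound exposure: 48 hours, 5 concentrations, 96-well plates. GI50 = concentration required for 50% inhibition of growth.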 Calls of active or inactive are those of the source. Cut-off read from the data, not from the text of the source: active = GI50 up to about 1.1 µM and inactive = higher.

Legend:
Assay in all cases: NCI tumour cell line growth inhibition, 48 h
OVCAR-4 = system: OVCAR-4
LOX IMVI = system: LOX IMVI
HT-29 = system: HT-29
OVCAR-3 = system: OVCAR-3
COLO 205 = system: COLO 205
NCI-H23 = system: NCI-H23
HOP-92 = system: HOP-92
SK-MEL-28 = system: SK-MEL-28
HL-60 = system: HL-60
HCT-15 = system: HCT-15
SW-620 = system: SW-620
NCI-H226 = system: NCI-H226
SF-268 = system: SF-268
HCC 2998 = system: HCC 2998
SF-295 = system: SF-295
786-0 = system: 786-0
NCI-H522 = system: NCI-H522
SK-OV-3 = system: SK-OV-3
SK-MEL-2 = system: SK-MEL-2
UACC-62 = system: UACC-62

Row | SMILES | GI50 (OVCAR-4) | GI50 (LOX IMVI) | GI50 (HT-29) | GI50 (OVCAR-3) | GI50 (COLO 205) | GI50 (NCI-H23) | GI50 (HOP-92) | GI50 (SK-MEL-28) | GI50 (HL-60) | GI50 (HCT-15) [µM] | GI50 (SW-620) | GI50 (NCI-H226) | GI50 (SF-268) | GI50 (HCC 2998) | GI50 (SF-295) | GI50 (786-0) | GI50 (NCI-H522) | GI50 (SK-OV-3) | GI50 (SK-MEL-2) | GI50 (UACC-62)
1 | Nc1nc(Cl)c(/C=N\O)c(NCC2(CO)CCC2)n1 | 27 µM (inactive) | 9.95 µM (inactive) | 59.3 µM (inactive) | 24.2 µM (inactive) | 30.3 µM (inactive) | 1.73 µM (inactive) | 19.6 µM (inactive) | 54.6 µM (inactive) | > 10 µM (inactive) | 60.8 | > 100 µM (inactive) | 23.2 µM (inactive) | > 100 µM (inactive) | 68.7 µM (inactive) | 21.2 µM (inactive) | 41.7 µM (inactive) | 14.8 µM (inactive) |  |  | 
2 | CC(C)c1cccc2sc(NC(=O)C(=O)CC(=O)c3ccc(F)cc3)nc12 | > 100 µM (inactive) | > 100 µM (inactive) | > 100 µM (inactive) | > 100 µM (inactive) | > 100 µM (inactive) | > 100 µM (inactive) | > 100 µM (inactive) | > 100 µM (inactive) | > 100 µM (inactive) | > 100 | > 100 µM (inactive) | > 100 µM (inactive) | > 100 µM (inactive) |  | > 100 µM (inactive) | > 100 µM (inactive) | > 100 µM (inactive) | > 100 µM (inactive) | > 100 µM (inactive) | > 100 µM (inactive)
3 | Nc1ccccc1C#CC(=O)c1cccc(C(F)(F)F)c1 | 2.22 µM (inactive) | 1.46 µM (inactive) | 4.16 µM (inactive) | 3.78 µM (inactive) | 1.89 µM (inactive) | 1.97 µM (inactive) | 1.99 µM (inactive) |  | 6.07 µM (inactive) |  | 2.21 µM (inactive) | 3.58 µM (inactive) | 2.2 µM (inactive) |  | 15.7 µM (inactive) | 2.1 µM (inactive) | 1.09 µM (active) | 15.3 µM (inactive) | 1.18 µM (inactive) | 1.86 µM (inactive)
4 | Cc1cc(N(C)C)ccc1/N=N/c1ccc2ncccc2c1 |  |  | 35.3 µM (inactive) |  | 33.9 µM (inactive) | 59.3 µM (inactive) | > 100 µM (inactive) |  | 19.9 µM (inactive) | 40.6 | > 100 µM (inactive) | 31.8 µM (inactive) | > 100 µM (inactive) |  | > 100 µM (inactive) | > 100 µM (inactive) | 13.3 µM (inactive) | > 100 µM (inactive) | > 100 µM (inactive) | > 100 µM (inactive)
5 | CCOC(=O)C1=CNC(C(=O)OCC)C1c1cccn1-c1ccccc1 (stereo not given) | 46.6 µM (inactive) | 16.6 µM (inactive) | 23 µM (inactive) | 26.1 µM (inactive) | 23.5 µM (inactive) | 37.7 µM (inactive) | 16.3 µM (inactive) | 28.1 µM (inactive) |  | 40.2 | 27.1 µM (inactive) | 23.3 µM (inactive) | 31.3 µM (inactive) | 28.7 µM (inactive) | 24.5 µM (inactive) | 32.5 µM (inactive) | 21.3 µM (inactive) |  | 12.1 µM (inactive) | 24.4 µM (inactive)
6 | Cc1cc(C)c2c(c1)C(=O)C1(C2)Cc2c(ccc(C)c2C)C1=O (stereo not given) | > 100 µM (inactive) | > 100 µM (inactive) |  | 14.3 µM (inactive) | > 100 µM (inactive) |  | > 100 µM (inactive) | > 100 µM (inactive) | > 100 µM (inactive) | > 100 | > 100 µM (inactive) | > 100 µM (inactive) | > 100 µM (inactive) | > 100 µM (inactive) | > 100 µM (inactive) | > 100 µM (inactive) | 43.8 µM (inactive) |  | > 100 µM (inactive) | > 100 µM (inactive)
7 | O=S(=O)(O)c1cc(O)c2c(O)c(/N=N/c3cccc4ccccc34)c(S(=O)(=O)O)cc2c1 | > 100 µM (inactive) | > 100 µM (inactive) | > 100 µM (inactive) | > 100 µM (inactive) | > 100 µM (inactive) | > 100 µM (inactive) | > 100 µM (inactive) | > 100 µM (inactive) |  | > 100 | > 100 µM (inactive) | > 100 µM (inactive) | > 100 µM (inactive) |  | > 100 µM (inactive) | > 100 µM (inactive) | > 100 µM (inactive) | > 100 µM (inactive) | > 100 µM (inactive) | > 100 µM (inactive)
8 | C=C1CCC([N+](=O)[O-])[C@](C)(N=O)CC[C@@H]2C1CC2(C)C (stereo not given in full) | 24.7 µM (inactive) | 16.1 µM (inactive) | 19.9 µM (inactive) | 23.6 µM (inactive) | 28.1 µM (inactive) | 17.2 µM (inactive) | 19.9 µM (inactive) | > 10 µM (inactive) | 5.43 µM (inactive) | 22.8 | 16.9 µM (inactive) | 16 µM (inactive) | 31.3 µM (inactive) |  | 17.9 µM (inactive) | 20.6 µM (inactive) | 19.4 µM (inactive) | 57.7 µM (inactive) | > 10 µM (inactive) | > 10 µM (inactive)
